In PubChem BioAssay AID608 (Sanford-Burnham Center for Chemical Genomics, 2007):
Calls of active or inactive are those of the source. How the calls were made is not given here. Where a SMILES comes first, the peptide text is derived from it.

target: Peptidyl-prolyl cis-trans isomerase FKBP1A (Homo sapiens) (UniProt P62942); assay: small-molecule binding to FKBP12 – biophysical, NMR detection (AID 608); conditions: purified FKBP12
Sequence (P62942 whole entry, looked up): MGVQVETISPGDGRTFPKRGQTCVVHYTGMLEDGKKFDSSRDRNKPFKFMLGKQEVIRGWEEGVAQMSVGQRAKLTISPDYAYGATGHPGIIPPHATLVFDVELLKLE

| Structure (SMILES) | Kd |
| --- | --- |
| O=C(Nn1cnnc1)c1cc2c(s1)CCCC2 | > 4 mM (inactive) |
| O=C1NCCCC1C(=O)N/N=C/c1ccccc1 (centres undefined) | > 4 mM (inactive) |
| CN1CCC(N(C)C2CCN(C)CC2)CC1 | > 4 mM (inactive) |
| Cc1cc(=O)[nH]c(N2CCN(Cc3ccccc3)CC2)n1 | > 4 mM (inactive) |
| O=C(O[C@@H]1Cc2c(O)cc(O)cc2O[C@@H]1c1ccc(O)c(O)c1)c1cc(O)c(O)c(O)c1 | > 4 mM (inactive) |
| O=C(Nc1ccccc1)c1cnc2n(c1=O)CCS2 | > 4 mM (inactive) |
| CN1C(CC(=O)c2ccccc2)CCCC1CC(O)c1ccccc1 (centres undefined) | > 4 mM (inactive) |
| NC(=O)CSc1nc2ccccc2c(=O)[nH]1 | > 4 mM (inactive) |
| COc1cc(C)nc(N(CCO)CCO)n1 | > 4 mM (inactive) |
| O=C1NC(=O)C(Cc2cccs2)C(=O)N1 | > 4 mM (inactive) |
| O=S(=O)(Cc1ccccc1Cl)Nc1ccccn1 | > 4 mM (inactive) |
| Cc1cc(C(=O)Nc2cccnc2)cs1 | > 4 mM (inactive) |
| Cc1n[nH]c(C)c1-c1ccccc1C(=O)O | > 4 mM (inactive) |
| COc1cccc(-c2cc(=O)c3cc(OC)ccc3o2)c1 | > 4 mM (inactive) |
| CC(=O)Oc1c(C)cc(O)c2ccccc12 | > 4 mM (inactive) |
| NNc1ncnc2sccc12 | > 4 mM (inactive) |
| NC(=O)CSc1ccc2nnc(-c3ccccc3)n2n1 | > 4 mM (inactive) |
| O=C(O)c1ccc(-n2cccc2)cc1 | > 4 mM (inactive) |
| CN(C)c1ccc(NC(=O)CC(C(=O)O)N(C)C)cc1 (centres undefined) | > 4 mM (inactive) |
| NCc1ccccc1N1CCOCC1 | > 4 mM (inactive) |

| Structure (SMILES) | Kd |
| --- | --- |
| Cc1cc(C)n2c(SCc3cccs3)nnc2n1 | > 4 mM (inactive) |
| Cc1cc(C(F)(F)F)n2nc(C(=O)O)c(Cl)c2n1 | > 4 mM (inactive) |
| N#CCc1nc2ccccc2s1 | > 4 mM (inactive) |
| O=C(NC1=NCCS1)c1ccc2snnc2c1 | > 4 mM (inactive) |
| NC(=O)CN1CC(=O)NC(=O)C1 | > 4 mM (inactive) |
| CC(=O)NC12CC3CC(C)(C1)CC(NC(C)=O)(C3)C2 | > 4 mM (inactive) |
| CN(C)S(=O)(=O)c1ccc(C(=O)NN)cc1 | > 4 mM (inactive) |
| CC(=O)N[C@@H](CC(=O)O)C(=O)N[C@@H](CCC(=O)O)C(=O)O (Ac-Asp-Glu-OH) | > 4 mM (inactive) |
| CC(=O)c1cccc(N=C2NC(=O)CS2)c1 | > 4 mM (inactive) |
| O=C(Nc1ccc(F)cc1F)c1ccco1 | > 4 mM (inactive) |
| COc1cccc(Oc2ccc(N)cc2)c1 | > 4 mM (inactive) |
| Cc1ccc(-c2nc(-c3cccnc3)no2)c(C)c1 | > 4 mM (inactive) |
| Cc1ccc(C)c(S(=O)(=O)NCc2cccnc2)c1 | > 4 mM (inactive) |
| COC(=O)CC1C(C)(C)C(OC(C)=O)[C@@H]2[C@@H](OC(C)=O)[C@]34O[C@@]2(O)[C@]1(C)C3CC[C@]1(C)C4=CC(=O)O[C@H]1c1ccoc1 (some centres undefined) | > 4 mM (inactive) |
| CNC(=O)C(=O)Nc1c(C)cccc1C | > 4 mM (inactive) |
| NCC1COc2ccccc2O1 (centres undefined) | > 4 mM (inactive) |
| CSc1nsc(SCc2cnc(C)nc2N)n1 | > 4 mM (inactive) |
| Cc1nc2ccccc2c(=O)n1N1C(=O)CCCC1=O | > 4 mM (inactive) |
| CCCn1c(S(=O)(=O)O)nc2ccccc21 | > 4 mM (inactive) |
| Cc1ccc(NC(=O)C2CCN(S(C)(=O)=O)CC2)cc1 | > 4 mM (inactive) |

| Structure (SMILES) | Kd |
| --- | --- |
| Cn1c(O)c(C=NCC2CCNCC2)c(=O)n(C)c1=O | > 4 mM (inactive) |
| Cn1nnc2cc(C(=O)NC3CCCCC3)ccc21 | > 4 mM (inactive) |
| CCCCCCCCCCCCCc1ccco1 | > 4 mM (inactive) |
| COC(=O)c1cccs1 | > 4 mM (inactive) |
| CCC1C(=O)OCC1Cc1cncn1C (centres undefined) | > 4 mM (inactive) |
| O=C(NCc1cccs1)c1ccncc1 | > 4 mM (inactive) |
| CS(=O)(=O)Nc1nnc(Cc2ccccc2)s1 | > 4 mM (inactive) |
| COc1cc(-c2coc3cc(OC)c(OC)c(OC)c3c2=O)cc(OC)c1OC | > 4 mM (inactive) |
| OC(CCl)c1ccc(-n2cncn2)cc1 (centres undefined) | > 4 mM (inactive) |
| CC(=O)O[C@H]1C[C@@H](OC(C)=O)C(C)(C)C2C[C@@H](OC(C)=O)[C@]3(C)C([C@H](OC(C)=O)C[C@@]4(C)[C@H](c5ccoc5)OC(=O)[C@H]5O[C@]543)[C@]21C (some centres undefined) | > 4 mM (inactive) |
| CN(C)S(=O)(=O)Nc1ccc(Br)cc1F | > 4 mM (inactive) |
| OC[C@@H](O)[C@@H](O[C@@H]1O[C@H](CO)[C@@H](O)[C@H](O)[C@H]1O)[C@H](O)[C@@H](O)CO | > 4 mM (inactive) |
| CCc1nnsc1C(=O)Nc1nccs1 | > 4 mM (inactive) |
| O=C(Nc1ccc(-c2nnco2)cc1)c1ccccc1 | > 4 mM (inactive) |
| O=C(O)CS(=O)(=O)c1ccccc1 | > 4 mM (inactive) |
| O=C(O)c1ccc2c(c1)OCCCO2 | > 4 mM (inactive) |
| COc1ccc2c(c1OC)C(=O)N(c1ncn[nH]1)C2 | > 4 mM (inactive) |
| COc1cc2c(cc1O)CCNC2C (centres undefined) | > 4 mM (inactive) |
| O=c1nc(N2CCCCC2)nc2n1CCO2 | > 4 mM (inactive) |
